# Molecular target: T1, mouse sEH (Mus musculus, UniProt P34914)
# T1 sequence (P34914 1-554): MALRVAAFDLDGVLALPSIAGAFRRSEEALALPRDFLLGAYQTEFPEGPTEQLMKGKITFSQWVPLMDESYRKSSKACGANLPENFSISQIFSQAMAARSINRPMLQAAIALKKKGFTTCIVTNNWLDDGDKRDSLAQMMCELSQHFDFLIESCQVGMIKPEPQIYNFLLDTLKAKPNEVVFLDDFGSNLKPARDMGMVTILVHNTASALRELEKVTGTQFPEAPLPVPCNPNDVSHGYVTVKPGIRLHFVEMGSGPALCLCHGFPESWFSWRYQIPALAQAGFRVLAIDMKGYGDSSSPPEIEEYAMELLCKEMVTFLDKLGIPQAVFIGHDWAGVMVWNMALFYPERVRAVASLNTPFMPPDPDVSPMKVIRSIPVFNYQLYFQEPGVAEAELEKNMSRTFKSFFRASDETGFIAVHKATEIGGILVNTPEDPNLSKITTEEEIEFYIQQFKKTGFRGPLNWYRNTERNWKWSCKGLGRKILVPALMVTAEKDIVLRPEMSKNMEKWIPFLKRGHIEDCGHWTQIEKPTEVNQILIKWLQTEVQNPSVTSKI
# Experiment: fluorogenic substrate hydrolase assay
# Format: biochemical
# Conditions: recombinant purified enzyme, average of triplicates
row,IC50,Compound
1,4 nM,"O=C(COc1cccc2c1C(=O)N(C1CCC(=O)NC1=O)C2=O)NCCOCCOCCOCCOCCNC(=O)c1ccc(O[C@H]2CC[C@H](NC(=O)Nc3ccc(OC(F)(F)F)cc3)CC2)cc1 (stereo partly drawn) [1a, compound 1a]"
2,6 nM,O=C(COc1ccc(N2CCC(=O)NC2=O)cc1)NCCOCCOCCOCCOCCNC(=O)c1ccc(O[C@H]2CC[C@H](NC(=O)Nc3ccc(OC(F)(F)F)cc3)CC2)cc1 [compound 4]
3,4.7 nM,O=C(COc1ccc(C2CCC(=O)NC2=O)cc1)NCCOCCOCCOCCOCCNC(=O)c1ccc(O[C@H]2CC[C@H](NC(=O)Nc3ccc(OC(F)(F)F)cc3)CC2)cc1 (stereo partly drawn) [compound 3]
4,9.3 nM,Cc1ccc(C(=O)NCCOCCOCCOCCOCCNC(=O)c2ccc(O[C@H]3CC[C@H](NC(=O)Nc4ccc(OC(F)(F)F)cc4)CC3)cc2)cc1N1CCC(=O)NC1=O [compound 5]
5,1.6 nM,O=C1CCC(N2Cc3c(NCCOCCOCCOCCNC(=O)c4ccc(O[C@H]5CC[C@H](NC(=O)Nc6ccc(OC(F)(F)F)cc6)CC5)cc4)cccc3C2=O)C(=O)N1 (stereo partly drawn) [compound 1]
6,3 nM,O=C1CCC(N2C(=O)c3cccc(NCCOCCOCCC(=O)N4CCC(NC(=O)Nc5ccc(OC(F)(F)F)cc5)CC4)c3C2=O)C(=O)N1 (stereo not drawn) [compound 10]
7,0.64 nM,O=C1CCC(N2C(=O)c3ccc(NCCOCCOCCOCCOCCNC(=O)c4ccc(O[C@H]5CC[C@H](NC(=O)Nc6ccc(OC(F)(F)F)cc6)CC5)cc4)cc3C2=O)C(=O)N1 (stereo partly drawn) [compound 2]
8,1.4 nM,O=C1CCC(N2C(=O)c3cccc(NCCCCCC(=O)N4CCC(NC(=O)Nc5ccc(OC(F)(F)F)cc5)CC4)c3C2=O)C(=O)N1 (stereo not drawn) [compound 9]
9,3.1 nM,Cc1ncsc1-c1ccc(CNC(=O)[C@@H]2C[C@@H](O)CN2C(=O)[C@@H](NC(=O)CCCCCCC(=O)N2CCC(NC(=O)Nc3ccc(OC(F)(F)F)cc3)CC2)C(C)(C)C)cc1 [compound 12]

# Reference: publication doi:10.1101/2024.07.23.604814v1 (biorxiv, 2024)
